Laboratory results taken from article PMC10482825 (Scientific Reports, 2023).

Key:
E. faecalis = assay: Radial diffusion assay; assay type: cell-based, Enterococcus faecalis (ATCC, 33186); conditions: 5 µl of 500 µM per 3 mm well, 37 °C, mean ± SD
Description: (§1) The microbial strains used in this study were Bacillus subtilis (ATCC, 11774), Candida albicans (TIMM, 1768), Enterococcus faecalis (ATCC, 33186), Escherichia coli (ATCC, 11775), Klebsiella pneumoniae (ATCC, 13883), Methicillin-resistant Staphylococcus aureus (ATCC, BAA-41), Pseudomonas aeruginosa (ATCC, 10145), Salmonella enterica (ATCC, 14028), Serratia marcescens (ATCC, 13880), Staphylococcus aureus (ATCC, 25923) and Vibrio parahaemolyticus (ATCC, 17802). All microbial strains were cultivated overnight at 37 °C and 200 rpm, then subcultured and incubated for 3 h under the same incubation conditions to obtain the mid-logarithmic growth phase. The cultivated cells were washed twice with 10 mM Tris–HCl containing 5 mM D-glucose at pH 7.4 and suspended in the same buffer to be used in different assays, as previously described.
(§2) The antimicrobial activity spectra of the selected cryptides were screened against all the mentioned microbial pathogens, except V. parahaemolyticus, by radial diffusion assay as previously described, with slight modifications. […] The plates were then incubated for 18 h, and the antimicrobial activities were measured in the absolute unit (AU), as previously described. […]
(§3) plate. The plates were then incubated for 12 h at 37 °C and antimicrobial activities were measured in the term of absolute unit (A.U). […]

S. marcescens = assay: Radial diffusion assay; assay type: cell-based, Serratia marcescens (ATCC, 13880); conditions: 5 µl of 500 µM per 3 mm well, 37 °C, mean ± SD
Description: as §1, §2, §3

MRSA = assay: Radial diffusion assay; assay type: cell-based, Methicillin-resistant Staphylococcus aureus (ATCC, BAA-41); conditions: 5 µl of 500 µM per 3 mm well, 37 °C, mean ± SD
Description: as §1, §2, §3

K. pneumoniae = assay: Radial diffusion assay; assay type: cell-based, Klebsiella pneumoniae (ATCC, 13883); conditions: 5 µl of 500 µM per 3 mm well, 37 °C, mean ± SD
Description: as §1, §2, §3

S. epidermidis = assay: Radial diffusion assay; assay type: cell-based; conditions: 5 µl of 500 µM per 3 mm well, 37 °C, mean ± SD
Description: The antimicrobial activity spectra of the selected cryptides were screened against all the mentioned microbial pathogens, except V. parahaemolyticus, by radial diffusion assay as previously described, with slight modifications. We aimed to test different categories of pathogens on the WHO global priority due to their growing resistance to the available antibiotics such as P. aeruginosa, E. coli and K. pneumoniae in the critical category and Salmonella ssp. and S. aureus in the high category. Briefly, a total of 4 × 10^6 CFU of each pathogen was inoculated in 10 mL of an underlay agarose gel [0.03% w/v tryptone soy broth (TSB) medium, 1% w/v agarose and 0.02% v/v Tween 20 in 10 mM Tris–HCl] that was then poured into a 100-mm petri dish. After agarose solidification, 3 mm-diameter wells were punched by a sterile cork borer and 5 µl of 500 µM stock solution from each cryptide was added to each well. Melittin and acidified water were used as positive and negative controls, respectively. […] The plates were then incubated for 18 h, and the antimicrobial activities were measured in the absolute unit (AU), as previously described. […]
as §3

C. albicans = assay: Radial diffusion assay; assay type: cell-based, Candida albicans (TIMM, 1768); conditions: 5 µl of 500 µM per 3 mm well, 37 °C, mean ± SD
Description: as §1, §2, §3

HEK-293 = assay: MTT cytotoxicity on normal cells; assay type: cell-based, human; conditions: 25 µM (highest tested concentration), 24 h, serum-free medium
Procedure: (§4) The used mammalian cell lines in our study were colorectal adenocarcinoma (Caco2, ATCC-HTB-37), colorectal carcinoma (HCT 116, ATCC-CCL-247), lung carcinoma (A549, ATCC- CCL-185), cervical cancer cells (HeLa, ATCC-CCL-2), neuroblastoma (SH-SY5Y, ATCC- CRL-2266), rhabdomyosarcoma (RD, ATCC- CCL-136) and human embryonic kidney cells (HEK 293, ATCC- CRL-1573). All the cells were maintained into Dulbecco’s Modified Eagle’s Medium (DMEM) supplemented with 10% heat-inactivated fetal bovine serum, 2 mM L-Glutamine, 100 U/ml penicillin–streptomycin (Pen/Strep) at 37 °C in 5% CO2 humidified incubator.
(§5) First, the cytotoxic effect of 24 h serum deprivation on all the selected cell lines was evaluated by MTT assay, following standard protocols. Briefly, cells were seeded and maintained at 37 °C and 5% CO2 in 24-well plates until they reached 75–80% confluency (zero time). Following washing twice with 1X PBS, cells were incubated in a serum-free medium for 24 h, under the same incubation conditions. The cell viability percentages were calculated and compared to zero time as 100% viability to nullify any possible effects of serum deprivation. Thence, the cell viability percentage of each cell line in response to 24 h treatment with different concentrations of each cryptide in serum-free medium was calculated. […] All the measured cell viability percentages were normalised against the corresponding negative controls.

S. enterica = assay: Radial diffusion assay; assay type: cell-based, Salmonella enterica (ATCC, 14028); conditions: 5 µl of 500 µM per 3 mm well, 37 °C, mean ± SD
Description: as §1, §2, §3

[1] = assay type: cell-based; conditions: 24 h, serum-free medium, MTT, 37 °C, 5% CO2; mean ± SD; read-out: IC50 (µM) A459
Procedure: as §4, §5

SH-SY5Y = assay type: cell-based; conditions: 24 h, serum-free medium, MTT, 37 °C, 5% CO2; mean ± SD
Procedure: as §4, §5

RD = assay type: cell-based; conditions: 24 h, serum-free medium, MTT, 37 °C, 5% CO2; mean ± SD
Procedure: as §4, §5

B. subtilis = assay: Radial diffusion assay; assay type: cell-based, Bacillus subtilis (ATCC, 11774); conditions: 5 µl of 500 µM per 3 mm well, 37 °C, mean ± SD
Description: as §1, §2, §3

S. aureus = assay: Radial diffusion assay; assay type: cell-based, Staphylococcus aureus (ATCC, 25923); conditions: 5 µl of 500 µM per 3 mm well, 37 °C, mean ± SD
Description: as §1, §2, §3

P. aeruginosa = assay: Radial diffusion assay; assay type: cell-based, Pseudomonas aeruginosa (ATCC, 10145); conditions: 5 µl of 500 µM per 3 mm well, 37 °C, mean ± SD
Description: as §1, §2, §3

HeLa = assay type: cell-based, human; conditions: 24 h, serum-free medium, MTT, 37 °C, 5% CO2; mean ± SD
Procedure: as §4, §5

Caco-2 = assay type: cell-based, human; conditions: 24 h, serum-free medium, MTT, 37 °C, 5% CO2; mean ± SD
Procedure: as §4, §5

HCT 116 = assay type: cell-based, human; conditions: 24 h, serum-free medium, MTT, 37 °C, 5% CO2; mean ± SD
Procedure: as §4, §5

E. coli K-1 = assay: Radial diffusion assay; assay type: cell-based, Escherichia coli (ATCC, 11775); conditions: 5 µl of 500 µM per 3 mm well, 37 °C, mean ± SD
Description: as §1, §2, §3

bacterial pathogens = conditions: salt tolerance; cited from earlier work
Procedure: For example, Pleurocidin is an AMP isolated from a marine flatfish Pseudopleuronectes americanus (Winter flounder) and has been reported to be active against bacterial pathogens at high NaCl concentrations, up to 625 mM[15]. This potential salt-insensi ...

Compound | Antimicrobial activity (inhibition zone) E. faecalis (E. faecalis) | Antimicrobial activity (inhibition zone) S. marcescens (S. marcescens) | Antimicrobial activity (inhibition zone) MRSA (MRSA) | Antimicrobial activity (inhibition zone) K. pneumoniae (K. pneumoniae) | Antimicrobial activity (inhibition zone) S. epidermidis (S. epidermidis) | Antifungal activity (inhibition zone) C. albicans (C. albicans) | Cell death of HEK-293 (HEK-293) | Antimicrobial activity (inhibition zone) S. enterica (S. enterica) | IC50 [1] | IC50 (SH-SY5Y) | IC50 (RD) | Antimicrobial activity (inhibition zone) B. subtilis (B. subtilis) | Antimicrobial activity (inhibition zone) S. aureus (S. aureus) | Antimicrobial activity (inhibition zone) P. aeruginosa (P. aeruginosa) | IC50 (HeLa) | IC50 (Caco-2) | IC50 (HCT 116) | Antimicrobial activity (inhibition zone) E. coli K-1 (E. coli K-1) | NaCl concentration up to which active against bacterial pathogens (bacterial pathogens)
CC[C@H](C)[C@H](NC(=O)CN)C(=O)NCC(=O)N[C@@H](C)C(=O)N[C@H](C(=O)N[C@@H](CC(C)C)C(=O)N[C@@H](CCCCN)C(=O)N[C@H](C(=O)N[C@@H](CC(C)C)C(=O)N[C@H](C(=O)N[C@H](C(=O)NCC(=O)N[C@@H](CC(C)C)C(=O)N1CCC[C@H]1C(=O)N[C@@H](C)C(=O)N[C@@H](CC(C)C)C(=O)N[C@H](C(=O)N[C@@H](CO)C(=O)N[C@@H](Cc1c[nH]c2ccccc12)C(=O)N[C@H](C(=O)N[C@@H](CCCCN)C(=O)N[C@@H](CCCNC(=N)N)C(=O)N[C@@H](CCCCN)C(=O)N[C@@H](CCCNC(=N)N)C(=O)N[C@@H](CCC(N)=O)C(=O)N[C@@H](CCC(N)=O)C(N)=O)[C@@H](C)CC)[C@@H](C)CC)[C@@H](C)O)[C@@H](C)O)C(C)C)C(C)C [Melittin, reference compound] | 11.8 ± 1.3 A.U. | 7.7 ± 1 A.U. | 11.8 ± 1.3 A.U. | 11.8 ± 1.3 A.U. | 10.4 ± 1.2 A.U. | 14.2 ± 1.4 A.U. | 78.7% | 7.8 ± 2 A.U. | 2.3 ± 0.6 µM | 1.7 ± 1 µM | 2.4 ± 0.5 µM | 21.8± 3.1 A.U. | 41.5 ± 2.5 A.U. | 6 ± 0.9 A.U. | 0.9 ± 0.1 µM | 1.2 ± 0.9 µM | 2.1 ± 0.2 µM | 6.5 ± 0.9 A.U. | –
Pleurocidin (GWGSFFKKAAHVGKHVGKAALTHYL; UniProt P81941 23-47, looked up) [AMP isolated from a marine flatfish Pseudopleuronectes americanus (Winter flounder)] | – | – | – | – | – | – | – | – | – | – | – | – | – | – | – | – | – | – | up to 625 mM
